From article PMC6398866 (PLoS ONE, 2019)

Tests used:
[1] = tested on: Ang II-induced hypertensive mice; assay: Systolic blood pressure (tail-cuff) in Ang II-induced hypertensive mice; type: in vivo; conditions: Ang II-infused mice, 3 mg·kg^-1·day^-1 i.p. day 8 to 14, vs Ang II group
From the text: All animal experiments were approved by the Animal Experiment Committee of the Chonnam National University Medical School (CNU IACUC-H-2017-70) and carried out in accordance with the Guide for the Care and Use of Laboratory Animals (US National Institutes of Health Publication, 8th edition, 2011). CD-1 male mice (8-week-old) were purchased from OrientBio Company (Gyeonggi, South Korea). Alzet mini-osmotic pumps (model 1002) were purchased from Durect Corporation (Cupertino, CA, USA).

AT1 mRNA = assay: qRT-PCR of aortic tissue, Ang II mice; type: in vivo; conditions: Ang II-infused mice, 3 mg·kg^-1·day^-1 i.p. day 8 to 14, vs Ang II group
ANP mRNA = assay: qRT-PCR of heart tissue, Ang II mice; type: in vivo; conditions: Ang II-infused mice, 3 mg·kg^-1·day^-1 i.p. day 8 to 14, vs Ang II group
BNP mRNA = assay: qRT-PCR of heart tissue, Ang II mice; type: in vivo; conditions: Ang II-infused mice, 3 mg·kg^-1·day^-1 i.p. day 8 to 14, vs Ang II group
skeletal α-actin mRNA = assay: qRT-PCR of heart tissue, Ang II mice; type: in vivo; conditions: Ang II-infused mice, 3 mg·kg^-1·day^-1 i.p. day 8 to 14, vs Ang II group
[2] = tested on: Ang II-induced hypertensive mice; assay: Aortic wall thickness (H&E staining) in Ang II mice; type: in vivo; conditions: Ang II-infused mice, 3 mg·kg^-1·day^-1 i.p. day 8 to 14, H&E, vs Ang II group
cyclin D1 mRNA = assay: qRT-PCR of aortic tissue, Ang II mice; type: in vivo; conditions: Ang II-infused mice, 3 mg·kg^-1·day^-1 i.p. day 8 to 14, vs Ang II group
cyclin E1 mRNA = assay: qRT-PCR of aortic tissue, Ang II mice; type: in vivo; conditions: Ang II-infused mice, 3 mg·kg^-1·day^-1 i.p. day 8 to 14, vs Ang II group
E2F3 mRNA = assay: qRT-PCR of aortic tissue, Ang II mice; type: in vivo; conditions: Ang II-infused mice, 3 mg·kg^-1·day^-1 i.p. day 8 to 14, vs Ang II group
GATA6 mRNA = assay: qRT-PCR of aortic tissue, Ang II mice; type: in vivo; conditions: Ang II-infused mice, 3 mg·kg^-1·day^-1 i.p. day 8 to 14, vs Ang II group
rat aortic rings = assay: Isometric tension measurement, U46619-precontracted aortic rings
Method: A vasoconstriction-relaxation study was performed as described previously. Male Sprague-Dawley rats were purchased from Orient Bio (Gyeonggi-do, South Korea). Briefly, the thoracic aortas of the rats were excised and immersed in ice-cold, modified Krebs solution. The aortas were cleaned of all connective tissue, soaked in Krebs-bicarbonate solution, and cut into four ring segments (3.5 mm long). Each aortic ring was suspended in a water-jacketed organ bath (6 mL) maintained at 37°C and aerated with a mixture of 95% O2 and 5% CO2. Each ring was connected to an isometric force transducer (Danish Myo Technology, Skejbyparken, Aarhus N, Denmark). The rings were stretched to an optimal resting tension of 1.0 or 2.0 g, which was maintained throughout the experiment. Each ring was equilibrated in the organ bath solution for 90 min before the contractile responses were measured after the addition of 50 mM KCl.

[3] = tested on: vascular smooth muscle cells (VSMCs); assay: NO production in VSMC medium (Griess assay); type: cell-based; conditions: MS-275 3 and 10 μM, Ang II 1 μM, 24 h, Griess reagent
Method: VSMCs were seeded in 12 well plates.

arginase 1 mRNA = assay: qRT-PCR of aortic tissue, Ang II mice; type: in vivo; conditions: Ang II-infused mice, 3 mg·kg^-1·day^-1 i.p. day 8 to 14, vs Ang II group
arginase 2 mRNA = assay: qRT-PCR of aortic tissue, Ang II mice; type: in vivo; conditions: Ang II-infused mice, 3 mg·kg^-1·day^-1 i.p. day 8 to 14, vs Ang II group
GTPCH mRNA = assay: qRT-PCR of aortic tissue, Ang II mice; type: in vivo; conditions: Ang II-infused mice, 3 mg·kg^-1·day^-1 i.p. day 8 to 14, vs Ang II group
Nox1 mRNA = assay: qRT-PCR of aortic tissue, Ang II mice; type: in vivo; conditions: Ang II-infused mice, 3 mg·kg^-1·day^-1 i.p. day 8 to 14, vs Ang II group
Nox2 mRNA = assay: qRT-PCR of aortic tissue, Ang II mice; type: in vivo; conditions: Ang II-infused mice, 3 mg·kg^-1·day^-1 i.p. day 8 to 14, vs Ang II group
p47phox mRNA = assay: qRT-PCR of aortic tissue, Ang II mice; type: in vivo; conditions: Ang II-infused mice, 3 mg·kg^-1·day^-1 i.p. day 8 to 14, vs Ang II group
Cox-2 mRNA = assay: qRT-PCR of aortic tissue, Ang II mice; type: in vivo; conditions: Ang II-infused mice, 3 mg·kg^-1·day^-1 i.p. day 8 to 14, vs Ang II group
SOD3 mRNA = assay: qRT-PCR of aortic tissue, Ang II mice; type: in vivo; conditions: Ang II-infused mice, 3 mg·kg^-1·day^-1 i.p. day 8 to 14, vs Ang II group
iNOS mRNA = assay: qRT-PCR of aortic tissue, Ang II mice; type: in vivo; conditions: Ang II-infused mice, 3 mg·kg^-1·day^-1 i.p. day 8 to 14, vs Ang II group
TNF-α mRNA = assay: qRT-PCR of aortic tissue, Ang II mice; type: in vivo; conditions: Ang II-infused mice, 3 mg·kg^-1·day^-1 i.p. day 8 to 14, vs Ang II group
IL-1β mRNA = assay: qRT-PCR of aortic tissue, Ang II mice; type: in vivo; conditions: Ang II-infused mice, 3 mg·kg^-1·day^-1 i.p. day 8 to 14, vs Ang II group
MCP-1 mRNA = assay: qRT-PCR of aortic tissue, Ang II mice; type: in vivo; conditions: Ang II-infused mice, 3 mg·kg^-1·day^-1 i.p. day 8 to 14, vs Ang II group
VCAM-1 mRNA = assay: qRT-PCR of aortic tissue, Ang II mice; type: in vivo; conditions: Ang II-infused mice, 3 mg·kg^-1·day^-1 i.p. day 8 to 14, vs Ang II group
ICAM-1 mRNA = assay: qRT-PCR of aortic tissue, Ang II mice; type: in vivo; conditions: Ang II-infused mice, 3 mg·kg^-1·day^-1 i.p. day 8 to 14, vs Ang II group
CD68+ macrophages = assay: CD68 immunohistochemistry of aorta (macrophage infiltration), Ang II mice; type: in vivo; conditions: Ang II-infused mice, 3 mg·kg^-1·day^-1 i.p. day 8 to 14, immunohistochemistry
Method: For immunohistochemistry, staining was performed in aortic tissues using a primary CD68 antibody. Before incubation with primary antibodies, aorta sections received antigen retrieval using a citrate buffer. Negative controls were performed without a primary antibody.

[4] = tested on: model of Cushing's syndrome; design: method as in PMID 28928236; conditions: model of Cushing's syndrome ref 23; cited from earlier work
collagen type III mRNA = assay: qRT-PCR, Ang II mice; conditions: Ang II-infused mice, 3 mg·kg^-1·day^-1 i.p. day 8 to 14, S1 Fig
Method: (§1) Mice were anesthetized with a ketamine (120 mg/kg), and xylazine (6.2 mg/kg) mixture and 1-cm incisions were created on the backs of the mice. Ang II (1.3 mg·kg^-1·day^-1) was subcutaneously infused into the mice using an Alzet osmotic pump as described previously [26]. […] Ang II was dissolved in a 0.9% sodium chloride (NaCl) solution. The sham control mice received the vehicle (dimethyl sulfoxide [DMSO]). […] Mice were sacrificed at the end of the study by CO2 inhalation.
(§2) Total RNA from the aorta tissue and cells was isolated with TriZol reagent (Invitrogen Life Technologies, Waltham, MA, USA), and 1 μg RNA was used for the reverse transcription (RT) reaction using TOPscript RT DryMIX (Enzynomics, Daejeon, South Korea). The mRNA amounts were determined using the SYBR Green PCR kit (Enzynomics, Daejeon, South Korea). All the data were normalized to the glyceraldehyde 3-phosphate dehydrogenase (GAPDH) expression using the 2-^ΔΔct method.

ACE1 mRNA = assay: qRT-PCR of aortic tissue, Ang II mice; conditions: Ang II-infused mice, 3 mg·kg^-1·day^-1 i.p. day 8 to 14
Method: as §1, §2

DDAH1 mRNA = assay: qRT-PCR of aortic tissue, Ang II mice; conditions: Ang II-infused mice, 3 mg·kg^-1·day^-1 i.p. day 8 to 14, vs Ang II group
Method: as §1, §2

[5] = tested on: Ang II-induced hypertensive mice; assay: NO levels in serum and aorta of Ang II-infused mice (Griess assay); conditions: 3 mg·kg^-1·day^-1 i.p.
Method: Mice were anesthetized with a ketamine (120 mg/kg), and xylazine (6.2 mg/kg) mixture and 1-cm incisions were created on the backs of the mice. Ang II (1.3 mg·kg^-1·day^-1) was subcutaneously infused into the mice using an Alzet osmotic pump as described previously [26]. […] Ang II was dissolved in a 0.9% sodium chloride (NaCl) solution. The sham control mice received the vehicle (dimethyl sulfoxide [DMSO]). […] Mice were subjected to blood pressure measurements three times before determination of the systolic blood pressure on day 14 after Ang II infusion. The blood pressure was measured in awake mice using the tail-cuff method (BP-2000, Visitech Systems, Apex, NC, USA).
NO levels in the serum (100 μl) were measured without dilution. Aorta NO levels were determined using 50 μg of protein, which was deproteinized with 5% trichloroacetic acid (TCA).

[6] = tested on: Ang II-induced hypertensive mice; assay: Aortic collagen deposition (Masson's trichrome staining) in Ang II mice; conditions: Ang II-infused mice, 3 mg·kg^-1·day^-1 i.p. day 8 to 14, Masson's trichrome
Method: Mice were anesthetized with a ketamine (120 mg/kg), and xylazine (6.2 mg/kg) mixture and 1-cm incisions were created on the backs of the mice. Ang II (1.3 mg·kg^-1·day^-1) was subcutaneously infused into the mice using an Alzet osmotic pump as described previously [26]. […] Ang II was dissolved in a 0.9% sodium chloride (NaCl) solution. The sham control mice received the vehicle (dimethyl sulfoxide [DMSO]). […] Mice were subjected to blood pressure measurements three times before determination of the systolic blood pressure on day 14 after Ang II infusion. The blood pressure was measured in awake mice using the tail-cuff method (BP-2000, Visitech Systems, Apex, NC, USA). Mice were sacrificed at the end of the study by CO2 inhalation.
Aortic tissues were fixed in 4% paraformaldehyde at 25°C, embedded in paraffin, and cut into 3-μm thick sections. The tissue slides were deparaffinized three times with xylene and hydrated using serially diluted ethanol. After immersing in tap water for 2 min, the slides were stained with Gill’s hematoxylin V for 5 min and then washed with tap water for 5 min and 95% ethanol for 2 min. The slides were stained with Eosin Y for 1 min, dehydrated with ethanol and xylene, and mounted using Canada balsam. The aortic wall thickness was measured using the NIS Elements Software (Nikon, Japan). […]

[7] = tested on: Ang II-induced hypertensive mice; conditions: cited from earlier work
[8] = tested on: spontaneously hypertensive rats (SHR); design: method as in PMID 22389387; conditions: long-term treatment, SHR ref 22; cited from earlier work
[9] = tested on: high-fat diet-induced hypertension; design: method as in PMID 28720877; conditions: by downregulating Ang II and AT1 ref 24; cited from earlier work
AT1 = conditions: through AT1 ref 25; cited from earlier work

## Nc1ccccc1NC(=O)c1ccc(CNC(=O)OCc2cccnc2)cc1 [MS-275]
[1]
  systolic blood pressure: significantly reduced
AT1 mRNA
  AT1 mRNA level in aorta: decreased
ANP mRNA
  ANP mRNA level in heart: significantly reduced
BNP mRNA
  BNP mRNA level in heart: significantly reduced
Skeletal α-actin mRNA
  skeletal a-actin mRNA level in heart: significantly reduced
[2]
  aortic wall thickness: significantly decreased
Cyclin D1 mRNA
  cyclin D1 mRNA level in aorta: not significantly decreased
Cyclin E1 mRNA
  cyclin E1 mRNA level in aorta: not significantly decreased
E2F3 mRNA
  E2F3 mRNA level in aorta: significantly inhibited
GATA6 mRNA
  GATA6 mRNA level in aorta: significantly suppressed
Rat aortic rings; endothelium-intact and -denuded rat aortas, U46619 30 nM, MS-275 cumulative 0.003–3 μM
  vasorelaxation of U46619-precontracted aortic rings: induced vasorelaxation
Rat aortic rings; rat aortic rings precontracted with U46619 30 nM
  concentration at which maximum relaxation was observed: 3 µM
[3]
  NO level in VSMC medium lowered by Ang II: significantly restored
Arginase 1 mRNA
  arginase 1 mRNA level in aorta: not reduced
Arginase 2 mRNA
  arginase 2 mRNA level in aorta: not reduced
GTPCH mRNA
  GTPCH mRNA level in aorta: significantly reduced
Nox1 mRNA
  Nox1 mRNA level in aorta: unchanged
Nox2 mRNA
  Nox2 mRNA level in aorta: unchanged
p47phox mRNA
  p47phox mRNA level in aorta: unchanged
Cox-2 mRNA
  Cox-2 mRNA level in aorta: not significantly decreased
SOD3 mRNA
  SOD3 mRNA expression in aorta: did not restore
iNOS mRNA
  iNOS mRNA level in aorta: significantly attenuated
TNF-α mRNA
  TNF-α mRNA level in aorta: significantly attenuated
IL-1β mRNA
  IL-1β mRNA level in aorta: significantly attenuated
MCP-1 mRNA
  MCP-1 mRNA level in aorta: significantly attenuated
VCAM-1 mRNA
  VCAM-1 expression in aorta: significantly inhibited
ICAM-1 mRNA
  ICAM-1 expression in aorta: significantly inhibited
CD68+ macrophages
  number of CD68+ macrophages in aorta tissue: reduced
[4]
  hypertension and hyperglycemia: attenuates
Collagen type III mRNA
  collagen type III mRNA level: reduced
ACE1 mRNA
  ACE1 mRNA level in aorta: significantly reduced
DDAH1 mRNA
  DDAH1 mRNA level in aorta: suppressed
[5]
  NO level in aorta: not induced
  NO level in serum: not induced
[6]
  collagen deposition in the adventitia of aortic tissues: attenuated

## CN1CCc2c(c3ccccc3n2Cc2ccc(C(=O)NO)cc2)C1 [tubastatin A]
[7]; Ang II-infused mice ref 28
  hypertension: did not reduce

## CCCC(CCC)C(=O)O [VPA, valproic acid]
[8]
  cardiac hypertrophy, inflammation, and hypertensive responses: reduces
[9]
  high-fat diet-induced hypertension: prevents

## COC(=O)[C@@H](N)CCCNC(N)=N[N+](=O)[O-] [L-NAME, N^G-nitro-L-arginine methyl ester]
Rat aortic rings; endothelium-intact rat aortic rings, L-NAME 10 or 100 μM for 30 min
  effect of pretreatment on MS-275-induced vascular relaxation: reduced

## CC(/C=C/C(=O)NO)=C\[C@@H](C)C(=O)c1ccc(N(C)C)cc1 [TSA, trichostatin A]
AT1
  hypertension and vasoconstriction: inhibits

## Nc1cc(F)ccc1NC(=O)/C=C/c1cnn(C/C=C/c2ccccc2)c1 [RGFP966]
[1]
  systolic blood pressure: significantly reduced
ANP mRNA
  ANP mRNA level in heart: significantly reduced
BNP mRNA
  BNP mRNA level in heart: significantly reduced
Skeletal α-actin mRNA
  skeletal a-actin mRNA level in heart: significantly reduced
[2]
  aortic wall thickness: significantly decreased
Cyclin D1 mRNA
  cyclin D1 mRNA level in aorta: not significantly decreased
Cyclin E1 mRNA
  cyclin E1 mRNA level in aorta: not significantly decreased
E2F3 mRNA
  E2F3 mRNA level in aorta: significantly inhibited
GATA6 mRNA
  GATA6 mRNA level in aorta: significantly suppressed
Arginase 1 mRNA
  arginase 1 mRNA level in aorta: not reduced
Arginase 2 mRNA
  arginase 2 mRNA level in aorta: not reduced
GTPCH mRNA
  GTPCH mRNA level in aorta: significantly reduced
Nox1 mRNA
  Nox1 mRNA level in aorta: unchanged
Nox2 mRNA
  Nox2 mRNA level in aorta: unchanged
p47phox mRNA
  p47phox mRNA level in aorta: unchanged
Cox-2 mRNA
  Cox-2 mRNA level in aorta: not significantly decreased
SOD3 mRNA
  SOD3 mRNA expression in aorta: did not restore
iNOS mRNA
  iNOS mRNA level in aorta: not
MCP-1 mRNA
  MCP-1 mRNA level in aorta: not
VCAM-1 mRNA
  VCAM-1 expression in aorta: not
CD68+ macrophages
  number of CD68+ macrophages in aorta tissue: reduced

## Cn1c(/C=C/C(=O)NO)ccc1/C=C/C(=O)c1cccc(F)c1 [MC1568]
[7]; Ang II-induced hypertensive mice ref 26
  high systolic blood pressure: reduces
